Data on 13 compounds can be found in publication PMC5114681, “Molecular Mechanism of Action of Antimalarial Benzoisothiazolones: Species-Selective Inhibitors of the Plasmodium spp. MEP Pathway enzyme, IspD” (Scientific Reports, 2016).

In one series the target is PfIspD (Plasmodium falciparum, UniProt Q8I273). The series is described as follows: biochemical. Conditions: mean and SEM; n ≥ 3. The procedure:
(§1) Phosphate released by IspD was quantified using the EnzChek Phosphate Assay Kit (Invitrogen, Life Technologies), as previously described. 2-Amino-6-mercapto-7-methylpurine riboside (MESG) and purine nucleoside phosphorylase (PNP) were diluted and stored according to the manufacturer’s instructions. Final concentrations of reagents were as follows: 100 mM NaCl, 25 mM Tris pH 7.5, 7.5 mM MgCl2, 1 U/ml PNP, 0.1 U/mL yeast inorganic pyrophosphatase (New England Biolabs). […] Reactions were performed in 50 μL final volumes in 96-well clear flat bottom plates. In general, enzymes, buffers, and inhibitors were pre-warmed approximately 15 minutes at 37 °C, and reactions were then initiated by addition of the MEP substrate. […] Assays using E. coli IspD used 7.5 nM EcIspD-wt or 75 nM EcIspD-A14C. Absorbance at 360 nm was measured over time on a BMG POLARStar plate reader, preheated to 37 °C. Nonlinear regression analysis was performed using GraphPad Prism software. […] Slopes of changing absorbance values were converted to (μM MEP) (μM enzyme)^−1 s^−1 using a phosphate standard curve.

The subject of series [1] is P. falciparum strain 3D7. As to the kind of experiment: Parasite sensitivity assay (PicoGreen, 72 hours), strain 3D7. The format is cell-based. As to conditions: Plasmodium falciparum, mean and SEM, n ≥ 3, read-out: (3D7) EC50, P. falciparum growth in culture. How it is done:
(§2) Unless otherwise specified, P. falciparum parasites were cultured as previously described, in a 2% suspension of human erythrocytes in RPMI-1640 medium (Sigma Aldrich) supplemented with 27 mM sodium bicarbonate, 11 mM glucose, 5 mM HEPES, 1 mM sodium pyruvate, 0.37 mM hypoxanthine, 0.01 mM thymidine, 10 μg ml^−1 gentamicin and 0.5% Albumax (Life Technologies). Cultures were maintained in 5% O2/5% CO2/90% N2 at 37 °C. Parasite growth was monitored by microscopy of Giemsa-stained parasites. 3D7 strain parasites were obtained from the Malaria Research and Reference Reagent Resource Center, ATCC, Manassas, Virginia. D6 and 7G8 strains were obtained through BEI Resources Repository, NIAID, NIH: Plasmodium falciparum, Strain D6, MRA-285, contributed by D.E. Kyle; Plasmodium falciparum, Strain 7G8, MRA-152, contributed by David Walliker. The IPC 5202 strain was provided by the Malaria Research and Reference Reagent Resource Center (MR4) for distribution by BEI Resources NIAID, NIH: Plasmodium falciparum, Strain IPC 5202, also known as CAM3.IR539T; MRA-1240, contributed by Didier Ménard.
(§3) Asynchronous cultures of P. falciparum strain 3D7 were diluted to 1% parasitemia and cultured at indicated concentrations of inhibitor compounds in 100 μL culture volumes. During rescue experiments, parasite growth medium was supplemented with 200 μM isopentenyl pyrophosphate (IPP; Echelon Biosciences). After 72 hours, parasite growth was quantified using PicoGreen dye (Invitrogen) to measure DNA content as previously described. PicoGreen fluorescence was measured (485 nm excitation/528 nm emission) in a POLARStar Omega microplate reader (BMG Labtech).

For a further series, the target named is PvIspD (Plasmodium vivax, UniProt A5K9U5). As to the kind of experiment: IspD enzyme assay (EnzChek phosphate release), recombinant PvIspD. The format is biochemical, P. vivax. How it is done: as §1
For another series, the system named is P. falciparum IspD. Further details: method as in PMID 26783558, PMID 25367906, PMID 24247137, PMID 25754494. Conditions: known IspD inhibitors, Fig. 2; cited from earlier work.
A short description of series [2]: Calculated ClogD and aqueous solubility (AstraZeneca algorithms). As to conditions: predicted values.
The subject of the next series is MEP pathway. The series is described as follows: MEP metabolite profiling (LC-MS/MS of DOXP and MEcPP) in treated parasites. Conditions: 10 hours; for MEcPP levels compared to untreated parasites: 3 μM 8 or 5 μM FSM.
For another series, the target named is T1, EcIspD-wt (Escherichia coli, UniProt Q46893).
T1 construct: 6His; made in house; host or cells: Artic Express (DE3) RIL E. coli
As to the kind of experiment: IspD enzyme assay, recombinant EcIspD-wt. The format is biochemical, E. coli. How it is done: as §1

Series [3] deals with P. falciparum strain 3D7. The series is described as follows: Parasite growth inhibition with and without IPP supplementation (rescue). The format is cell-based. Conditions: for IPP rescue of parasite growth: 200 μM IPP supplementation. The procedure: as §3
In the next series the test system is P. falciparum strain D6. As to the kind of experiment: Parasite sensitivity assay, strain D6 (mefloquine-resistant). The format is cell-based. Conditions: Plasmodium falciparum, mean and SEM, read-out: Whole Cell Growth Inhibition EC50. The procedure: as §2, with “The IPC 5202 strain was provided by the Malaria Research and Reference Reagent Resource Center (MR4) for distribution by BEI Resources NIAID, NIH: Plasmodium falciparum, Strain IPC 5202, also known as CAM3.IR539T; MRA-1240, contributed by Didier Ménard.” left out
(§4) Asynchronous cultures of P. falciparum strain 3D7 were diluted to 1% parasitemia and cultured at indicated concentrations of inhibitor compounds in 100 μL culture volumes. […] After 72 hours, parasite growth was quantified using PicoGreen dye (Invitrogen) to measure DNA content as previously described. PicoGreen fluorescence was measured (485 nm excitation/528 nm emission) in a POLARStar Omega microplate reader (BMG Labtech).

A further series deals with T2, EcIspD-A14C (Escherichia coli, UniProt Q46893, A14C).
T2 construct: Amplicons containing the entire E. coli IspD gene were generated; 6His (N); made in house; host or cells: Artic Express (DE3) RIL E. coli
The series is described as follows: IspD enzyme assay, recombinant EcIspD-A14C mutant. The format is biochemical, E. coli. The procedure:
as §1

The next series concerns P. falciparum strain 7G8. As to the kind of experiment: Parasite sensitivity assay, strain 7G8 (multidrug (chloroquine)-resistant). The format is cell-based. As to conditions: Plasmodium falciparum, mean and SEM, read-out: Whole Cell Growth Inhibition EC50. How it is done: as §2, with “The IPC 5202 strain was provided by the Malaria Research and Reference Reagent Resource Center (MR4) for distribution by BEI Resources NIAID, NIH: Plasmodium falciparum, Strain IPC 5202, also known as CAM3.IR539T; MRA-1240, contributed by Didier Ménard.” left out
as §4

Series [4] relates to P. falciparum strain IPC 5202. As to the kind of experiment: Parasite sensitivity assay, strain IPC 5202 (artemisinin-resistant). The format is cell-based. As to conditions: Plasmodium falciparum, mean and SEM, read-out: Whole Cell Growth Inhibition EC50. How it is done:
as §2, with “The IPC 5202 strain was provided by the Malaria Research and Reference Reagent Resource Center (MR4) for distribution by BEI Resources NIAID, NIH: Plasmodium falciparum, Strain IPC 5202, also known as CAM3.IR539T; MRA-1240, contributed by Didier Ménard.” left out
as §4

A further series relates to PfIspD-C202A. The series is described as follows: IspD enzyme assay, recombinant PfIspD-C202A mutant. The format is biochemical, P. falciparum. Conditions: prolonged (50 min.) incubation. The procedure: as §1
The subject of a further series is A. thaliana IspD. On the set-up: method as in PMID 24446431, PMID 21766403, PMID 22975264. Conditions: known IspD inhibitors, Fig. 2; cited from earlier work.
A further series has as its system P. vivax IspD. Further details: method as in PMID 24446431, PMID 21766403, PMID 22975264. As to conditions: known IspD inhibitors, Fig. 2; cited from earlier work.

Entries after “also recorded” stand apart in the source; their conditions may differ.

PvIspD, sequence (A5K9U5 entry or part of it): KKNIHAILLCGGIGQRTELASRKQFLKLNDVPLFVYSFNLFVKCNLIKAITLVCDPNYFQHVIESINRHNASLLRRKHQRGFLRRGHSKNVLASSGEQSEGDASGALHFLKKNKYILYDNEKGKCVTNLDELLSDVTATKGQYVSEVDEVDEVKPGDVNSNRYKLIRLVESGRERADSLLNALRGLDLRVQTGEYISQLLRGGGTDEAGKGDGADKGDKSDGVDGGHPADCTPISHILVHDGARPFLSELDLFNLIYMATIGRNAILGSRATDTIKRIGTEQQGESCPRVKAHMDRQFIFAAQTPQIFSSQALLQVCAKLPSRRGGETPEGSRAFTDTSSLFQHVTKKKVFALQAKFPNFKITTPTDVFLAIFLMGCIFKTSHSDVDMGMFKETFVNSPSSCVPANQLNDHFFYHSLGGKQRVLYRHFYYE
PfIspD, sequence (Q8I273 entry or part of it): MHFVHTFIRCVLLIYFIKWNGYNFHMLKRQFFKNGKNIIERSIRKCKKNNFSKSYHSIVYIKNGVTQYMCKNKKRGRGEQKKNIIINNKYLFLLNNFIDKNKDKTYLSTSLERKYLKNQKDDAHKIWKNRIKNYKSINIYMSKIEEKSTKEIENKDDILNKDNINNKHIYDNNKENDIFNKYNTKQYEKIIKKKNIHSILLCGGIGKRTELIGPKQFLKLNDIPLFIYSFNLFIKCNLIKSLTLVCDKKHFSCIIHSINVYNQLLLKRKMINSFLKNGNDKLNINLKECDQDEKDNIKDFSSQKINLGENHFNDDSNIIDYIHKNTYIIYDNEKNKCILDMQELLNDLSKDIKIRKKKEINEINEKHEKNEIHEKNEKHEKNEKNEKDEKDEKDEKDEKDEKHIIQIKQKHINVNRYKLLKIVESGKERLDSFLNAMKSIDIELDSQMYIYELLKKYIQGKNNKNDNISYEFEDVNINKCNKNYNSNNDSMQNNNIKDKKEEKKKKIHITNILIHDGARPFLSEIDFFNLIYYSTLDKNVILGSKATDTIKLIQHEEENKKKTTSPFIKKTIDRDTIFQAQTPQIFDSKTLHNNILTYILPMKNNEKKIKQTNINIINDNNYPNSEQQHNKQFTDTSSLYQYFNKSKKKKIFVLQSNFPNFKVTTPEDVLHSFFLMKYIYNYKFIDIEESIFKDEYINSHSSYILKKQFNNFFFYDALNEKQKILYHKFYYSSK
T2 sequence (Q46893 whole entry A14C): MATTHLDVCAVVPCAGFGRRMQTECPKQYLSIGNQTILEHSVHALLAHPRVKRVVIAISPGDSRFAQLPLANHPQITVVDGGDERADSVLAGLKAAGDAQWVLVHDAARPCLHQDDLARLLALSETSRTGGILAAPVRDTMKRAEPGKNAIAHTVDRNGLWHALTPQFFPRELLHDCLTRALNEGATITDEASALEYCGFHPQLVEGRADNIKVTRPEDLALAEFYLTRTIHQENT
T1 sequence (Q46893 whole entry): as the sequence (Q46893 whole entry A14C) above, with C14A counted along it

Turning to `Cc1ccc(-n2sc3ccccc3c2=O)cc1S(=O)(=O)N1CCOCC1` [compound 7], the IC50 (commonly the midpoint of a concentration-inhibition curve) on PfIspD was 450 ± 79 nM; at PvIspD, 45 ± 20 nM. Besides, in the series with P. falciparum strain 3D7 [1], the EC50 (in general, the concentration giving half of the maximal effect) came out at 4300 ± 180 nM.

On to `O=C(O)[C@@H]1Cc2c([nH]c3ccccc23)[C@@H](c2ccc(Cl)cc2Cl)N1` [compound 4, 1R,3S-MMV008138], for which the IC50 in the series with P. falciparum IspD is 47 nM.

Turning to `CN1CCN(Cc2ccc(-c3cccc(-n4sc5ccccc5c4=O)c3)cc2)CC1` [compound 11, 2-(4’-((4-methylpiperazin-1-yl)methyl)-[1,1’-biphenyl]-3-yl)benzo[d]isothiazol-3(2H)-one], the IC50 amounted to 440 ± 75 nM at PfIspD and 62 ± 26 nM on PvIspD. For the same compound, the “increase in predicted aqueous solubility compared to 9” value in [2] is on record as 100 fold. Also, the EC50 in the series on P. falciparum strain 3D7 [1] was 420 ± 6 nM.

Regarding `O=c1c2ccccc2sn1-c1cccc(-c2ccc(CN3CCC(F)CC3)cc2)c1` [compound 12, 2-(4’-((4-fluoropiperidin-1-yl)methyl)-[1,1’-biphenyl]-3-yl)benzo[d]isothiazol-3(2H)-one], the IC50 against PfIspD came to 860 ± 110 nM; on PvIspD it was 240 ± 100 nM. In addition, the EC50 in the series with P. falciparum strain 3D7 [1] was found to be 320 ± 92 nM.

As for `COc1ccc(-c2cccc(-n3sc4ccccc4c3=O)c2)cc1` [compound 8, 2-(4’-methoxy-[1,1’-biphenyl]-3-yl)benzo[d]isothiazol-3(2H)-one], the “DOXP levels compared to untreated parasites” value in the series with MEP pathway is on record as “not affected”. Besides, the “MEcPP levels compared to untreated parasites” value in the series with MEP pathway is listed as “Significant decreases”. The “inhibition of recombinant EcIspD (wild type)” value on EcIspD-wt was “highly resistant to inhibition”. Besides, the “IPP rescue of parasite growth” value in the series on P. falciparum strain 3D7 [3] was “did not observe rescue; also recorded: No rescue was observed”. Further, the EC50 was found to be 980 ± 240 nM in the series with P. falciparum strain 3D7 [3] (Plasmodium falciparum, 3D7, mean and SEM, n ≥ 3); 800 ± 120 nM with P. falciparum strain D6; 1020 ± 250 nM with P. falciparum strain 7G8; 1380 ± 190 nM in [4]. Also, the IC50 at EcIspD-A14C is 440 ± 48 nM. Moreover, in the series on PfIspD-C202A, the “decrease in sensitivity, PfIspD-C202A versus PfIspD-wt” value turned out to be 6 fold.

Take `O=c1c2ccccc2sn1-c1cccc(-c2ccc(C(F)(F)F)cc2)c1` [compound 10, 2-(4’-(trifluoromethyl)-[1,1’-biphenyl]-3-yl)benzo[d]isothiazol-3(2H)-one]: the IC50 against PfIspD came to 270 ± 15 nM; on PvIspD it was 41 ± 18 nM. In addition, the EC50 with P. falciparum strain 3D7 [1] amounted to 650 ± 21 nM.

In the case of `Oc1c(Cc2ccccc2)c(Cl)cc2ncnn12` [3a], the IC50 in the series with A. thaliana IspD was 140 nM.

Take `Oc1c(Br)cc(Br)cc1-c1[nH]c(Br)c(Br)c1Br` [compound 1]: the IC50 in the series on A. thaliana IspD is 13000 nM; with P. vivax IspD, 48000 nM.

In the case of `N#Cc1cnn2c(O)c(Cc3ccccc3)c(Cl)cc12` [3b], the IC50 in the series with A. thaliana IspD was 35 nM.

`O=c1c2ccccc2sn1-c1cccc(-c2ccc(CN3CCOCC3)cc2)c1` [compound 13, 2-(4’-(morpholinomethyl)-[1,1’-biphenyl]-3-yl)benzo[d]isothiazol-3(2H)-one]: the IC50 against PfIspD was determined as 400 ± 82 nM; at PvIspD it was 50 ± 16 nM. Besides, the EC50 with P. falciparum strain 3D7 [1] turned out to be 410 ± 82 nM.

Take `COc1ccc2nc(NC(=O)c3cc(-c4ccccc4O)n[nH]3)sc2c1` [compound 2]: the IC50 with A. thaliana IspD is 1800 nM.

For the compound `O=c1c2ccccc2sn1-c1cccc(-c2ccc(Cl)cc2)c1` [compound 9, 2-(4’-chloro-[1,1’-biphenyl]-3-yl)benzo[d]isothiazol-3(2H)-one], the IC50 against PfIspD came out at 73 ± 20 nM; at PvIspD, 57 ± 13 nM. The 50% effective concentration (EC50) in the series with P. falciparum strain 3D7 [1] came to 1100 ± 160 nM.

Take `O=CN(O)CCCP(=O)(O)O` [FSM, fosmidomycin, reference compound]: the “MEcPP levels compared to untreated parasites” value in the series on MEP pathway is recorded as “Significant decreases”. In addition, the “IPP rescue of parasite growth” value in the series on P. falciparum strain 3D7 [3] was “rescue”.
